Results on six compounds are retold here after patent US20220348877A1, “GENERATION OF QUIESCENT CARDIAC FIBROBLASTS FROM HUMAN INDUCED PLURIPOTENT STEM CELLS FOR IN VITRO MODELING OF CARDIAC FIBROSIS” (The Board of Trustees of the Leland Stanford Junior …, priority 2019, published 2022).

Series [1] relates to human iPSC-CFs. Nature of the series: CF differentiation and passaging in the presence of TGF-β inhibitor. The format is cell-based. On the procedure:
Differentiation of human iPSC-derived cardiac fibroblasts. Human iPSCs were treated with 6 μM of CHIR99021 for 2 days, recovered in RPMI+B27-insulin for 24 hrs, treated with 5 μM of IWR-1 (10161, Sigma) for 2 days, and then RPMI+B27-insulin for another 24 hrs. On day 6, human induced pluripotent stem cell-derived cardiac progenitor cells (iPSC-CPCs) were re-plated at a density of 20,000 cells/cm2 in advanced DMEM medium (12634028, Gibco®, Life Technologies). On day 7 or 8, cells were treated with 5 μM of CHIR99021 and 2 μM of retinoic acid (R2625, Sigma-Aldrich) for 2 days, and recovered in advanced DMEM for 3 days. Typically, the purity of human induced pluripotent stem cell-derived epicardial cells (iPSC-EPCs) is >90% (WT1+). Human iPSC-EPCs were re-plated and treated with […] (100-18B, PeproTech) and 10 μM of SB431542 (S1067, Selleck chemicals) in a fibroblast growth medium for another 6 days. >90% purity of iPSC-CFs (COL-I+/DDR2+/TCF21+) can be achieved as assessed by FACS. Cultures were maintained in a humidified atmosphere (95% air, 5% CO2) at 37° C.
Differentiation of Quiescent Cardiac Fibroblasts from iPSC Derived Epicardial Cells. 1. On day 14, prepare fibroblast growth medium containing 20 ng/ml of FGF2 and 10 μM of SB431542. 2. Aspirate the spent medium, add 1 ml of Accutase per well in a 6-well plate, and incubate the plate in a […], 5% CO2 incubator for 5 min. […]

Series [2] has as its system human iPSC-CFs. Nature of the series: Quantitative real-time PCR of gene expression in drug-treated iPSC-CFs. The class given is cell-based. How it is done: (§1) Quantitative real-time PCR. Total RNA was isolated using the Qiagen miRNeasy Mini Kit (Qiagen Sciences, Inc, Germantown, Md.) following the manufacturer's instruction. For reverse transcription, a High Capacity RNA-to-cDNA kit (Life Technologies) was used, and the cDNA template was synthesized based on 1 μg of total mRNA. After mixing 0.2 μl of the cDNA template, 1 μl of TaqMan® primer sets (Life Technologies), 10 μl of TaqMan® Master Mix (Life Technologies), and 8.8 μl of ddH2O in the reaction system, real-time quantitative PCR was performed on the StepOne™ Real-Time PCR System (Life Technologies). Each reaction was run in triplicate. Expression values were normalized to the average expression of GAPDH.
(§2) Drug treatment. Unless otherwise stated, cells were treated with all drugs for 48 hrs. We used 5 ng/ml of TGFβ1 (240-B-010, R&D) to activate iPSC-CFs. Due to the short half-life, BNP (CYT-369, Prospec) was added into the medium three times a day. We used 20 μM of sacubitril (SML1380, Sigma) to inhibit ANP/BNP degradation. We used pirfenidone (S2907, Selleck Chemicals) and doxorubicin (25316-40-9, Selleck Chemicals) to test their anti-fibrotic and pro-fibrotic effects on iPSC-CFs, respectively.

Series [3] concerns human iPSC-CFs. In words: Flow cytometry (FACS) of α-SMA+ myofibroblast population. Particulars: for effect on TGF-β-induced upregulation of α-SMA / propagation of the α-SMA+ population: in presence of TGF-β, FIG. 5I. The class given is cell-based. On the procedure: Fluorescence-activated cell sorting (FACS) analysis. Cells were dissociated into singlets by TrypLE™ (12605, Gibco) for 10 min at 37° C., and the cell suspension was filtered through a 40-μm cell strainer (BD Falcon, San Diego) to remove cell clumps. Single cells were fixed and permeabilized by BD CytofixCytoperm™ buffer (BD 554722) for 20 min at 4° C. Next, cells were incubated with primary antibodies followed by Alexa Fluor™ secondary antibodies (Invitrogen). Primary antibodies against COLI (ab90395, Abcam), DDR2 (sc-81707, Santa Cruz), TCF21 (hpa013189, Sigma-Aldrich), α-SMA (ab7817, Abcam), and WT1 (ab89901, Abcam) were used. The percentage of fibroblasts was calculated as the ratio of TCF21+, DDR2+, and COL-1+ cells in the whole population, respectively. The percentage of myofibroblasts was calculated as the ratio of α-SMA+ cells in the whole population.
as §2

Series [4] concerns human iPSC-CFs. In words: Collagen gel contraction assay. The class given is cell-based. The note with it: TGF-β ± SB; gels imaged after 24 hrs. On the procedure:
Gel contraction assay. Collagen gel contraction assays were performed in three independent lines of iPSC-CFs (2.0×10^5 cells per well) using a Cell Contraction Assay kit (CBA5020, Cell Biolabs) as per the manufacturer's protocol. The cells were treated in the absence or presence of TGF-β±a TGF-β inhibitor SB431542 (SB). The gels were imaged after 24 hrs and gel area was quantified using ImageJ software (version 1.49).

Series [5] concerns human iPSC-CFs. Nature of the series: Immunoblotting of α-SMA in drug-treated iPSC-CFs. The format is cell-based. On the procedure: (§3) Immunoblotting and quantification. Cultured cells were homogenized in the RIPA buffer with proteinase and phosphatase inhibitor cocktails (78440, ThermoFisher), and quantified by Pierce™ BCA Protein Assay Kit (Pierce Biotechnology Inc.). A total of 20 μg protein was separated on NuPAGE® Novex® 4-12% Bis-Tris Protein Gels (Invitrogen, Carlsbad, Calif.). After being transferred to Amersham™ Hybond™ Blotting Membranes (GE Healthcare), proteins were incubated with primary antibodies against α-SMA (ab7817, Abcam), periostin (ab14041, Abcam), collagen Ill (ab7778, Abcam), fibronectin (ab6328, Abcam), MYH7 (sc-53089, Santa Cruz), and GAPDH (MA5-15738, Invitrogen). Band intensities for target bands were analyzed and quantified by the ImageJ Fuji program.
as §2

The conditions of series [6]: circulatory system; degrading enzyme neprilysin; cited from earlier work.
The subject of series [7] is human iPSC-CFs co-cultured with iPSC-CMs. Nature of the series: Indirect co-culture of iPSC-CFs with iPSC-CMs in the presence of TGF-β ± sacubitril (qPCR, immunoblot). The class given is cell-based. How it is done:
as §1, §3, §2
Indirect and direct contact co-culture. […] As a control, iPSC-CMs were co-cultured with iPSC-CMs in the transwells. The co-cultures were incubated at 37° C. and 5% CO2 before analysis. For direct contact co-culture, we first labeled fibroblasts and iPSC-CMs with CFSE (C34554, Thermo Fischer) and Far cell trace red (C34564, Thermofisher) dyes, respectively. Then, iPSC-CFs were seeded on top of the iPSC-CM monolayer at a ratio of 1:5, allowing for direct cell-cell contact. After 5 days of co-culture, the two cell types were separated by FACS sorting for downstream molecular analyses. The medium used for co-culture is the mixture of RPMI+B27 and fibroblast growth medium at a ratio of 3:1.

As a reminder, the half-life is the time needed for the level to fall by half in the phase considered.

“Also recorded” adds a separate entry of the source.

With `NC(=O)c1ccc(-c2nc(-c3ccc4c(c3)OCO4)c(-c3ccccn3)[nH]2)cc1` [SB431542, 4-[4-(1,3-benzodioxol-5-yl)-5-(2-pyridinyl)-1H-imidazol-2-yl]benzamide, reference compound], the “levels of smooth muscle marker genes (ACTA2, CNN1, TAGLN, SMTN, MYH11) in iPSC-CFs” value in the series on human iPSC-CFs [1] (SB added during CF differentiation, transcriptional and protein levels) was “negligible levels”. Further, the “αSMA+ cells (quiescent state preserved)” value in the series with human iPSC-CFs [1] (until passage 5, inhibitor present in fibroblast growth medium) is reported as around 5%. Besides, the “effect on TGF-β-induced upregulation of myofibroblast markers ACTA2 and POSTN” value in the series on human iPSC-CFs [2] (TGF-β ± SB) is given as “effectively inhibited”. Further, the “effect on TGF-β-induced upregulation of α-SMA / propagation of the α-SMA+ population” value in the series on human iPSC-CFs [3] is “significantly suppresses”. The “effect on TGF-β-induced collagen gel contraction” value in the series on human iPSC-CFs [4] is “completely abrogated”. Besides, the “effect on TGF-β-induced increase of α-SMA protein levels” value with human iPSC-CFs [5] (CFs from different human iPSC lines, TGF-β ± SB) is given as “abolished”.

For `COc1cccc2c1C(=O)c1c(O)c3c(c(O)c1C2=O)C[C@@](O)(C(=O)CO)C[C@@H]3O[C@H]1C[C@H](N)[C@H](O)[C@H](C)O1` [doxorubicin], the “induction of the α-SMA+ population (pro-fibrosis phenotype)” value with human iPSC-CFs [3] (FIG. 5J, vs ctrl group) was “dose-dependent pattern; also recorded: dose-dependent induction”.

For atrial natriuretic peptide [ANP], the half-life in series [6] is 3 min.

For brain natriuretic peptide [BNP], in the series on human iPSC-CFs [2] (in the presence of TGF-β), the “mRNA levels of CF markers (PDGFRA and TCF21)” value is listed as “higher levels”; the “mRNA levels of myofibroblast markers and ECM genes (ACTA2, POSTN, COL1A1, COL3A1)” value is “significantly lower”. The half-life in series [6] is 20 min. Moreover, the “α-SMA protein levels with escalating concentrations” value in the series with human iPSC-CFs [5] (in the presence of TGF-β, dose-dependent manner) is listed as “significantly suppressed”.

For the compound `Cc1ccc(=O)n(-c2ccccc2)c1` [pirfenidone], the “effect on TGF-β-induced upregulation of α-SMA / propagation of the α-SMA+ population” value in the series on human iPSC-CFs [3] is “significantly suppresses”; with human iPSC-CFs [3] (listed as Pirfenidone), “dose dependent inhibitory effect”.

Take `CCOC(=O)[C@H](C)C[C@@H](Cc1ccc(-c2ccccc2)cc1)NC(=O)CCC(=O)O` [sacubitril]: in series [7] (TGF-β, 20 μM sacubitril), the “mRNA levels of myofibroblast markers and ECM genes in the co-cultured condition” value was “further decreased”; the “protein levels of myofibroblast markers and ECM genes in the co-cultured condition” value is “further decreased”. In addition, the “anti-fibrotic effect seen in co-culture” value in series [7] (iPSC-CMs and iPSC-CFs co-culture) is recorded as “significantly enhanced”. The myofibroblast marker periostin entry in series [7] (only when added to the co-culture system) is “significantly decreased”.
